Holding throughout (assay): relative viability (nuclei count vs DMSO), 5 days (fraction); higher = more cells survive
Compound in the test “BGJ398 + Lapatinib”: CCN1CCN(c2ccc(Nc3cc(N(C)C(=O)Nc4c(Cl)c(OC)cc(OC)c4Cl)ncn3)cc2)CC1 [BGJ398] + CS(=O)(=O)CCNCc1ccc(-c2ccc3ncnc(Nc4ccc(OCc5cccc(F)c5)c(Cl)c4)c3c2)o1 [Lapatinib] (partner 2 µM)
In short, it runs like this:
(§1)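 Relative viability equals treated-well nuclei counts divided by vehicle-well nuclei counts. Counts came from 4× images of lung cancer cell lines grown in 1536-well plates for 5 days after pin-tool dosing on the day after seeding. Dosing used one drug alone or a fixed anchor-drug dose plus five library-drug doses (not always all listed) in √10 steps, and values are medians of duplicate plates.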

Compound in test [1]: C1=CC2=NC=CN=C2C=C1/C=C/3\C(=O)NC(=O)S3 + Cc1nc(Nc2ncc(C(=O)Nc3c(C)cccc3Cl)s2)cc(N2CCN(CCO)CC2)n1 [Dasatinib] (partner 0.075 µM)
In short, it runs like this: as §1

Compound in test [2]: C1=CC2=NC=CN=C2C=C1/C=C/3\C(=O)NC(=O)S3 + C[C@]1(O)C[C@@H](c2nc(-c3ccc4ccc(-c5ccccc5)nc4c3)c3c(N)nccn32)C1 [Linsitinib] (partner 1 µM)
In short, it runs like this:
as §1

Compound in test [3]: C1=CC2=NC=CN=C2C=C1/C=C/3\C(=O)NC(=O)S3 + Nc1nc2[nH]cc(CCc3ccc(C(=O)N[C@@H](CCC(=O)O)C(=O)O)cc3)c2c(=O)[nH]1 [Pemetrexed] (partner 0.2 µM)
The method in brief: as §1

In the case of NCI-H1915, the relative viability in the test with BGJ398 + Lapatinib (first compound 0.01 µM) amounted to 0.976; with BGJ398 + Lapatinib (first compound 0.03162 µM), 0.977; in the test with BGJ398 + Lapatinib (first compound 0.1 µM), 0.988; with BGJ398 + Lapatinib (first compound 0.3162 µM) it was 1.01; in the test with BGJ398 + Lapatinib (first compound 1 µM), 0.928; in test [1] (first compound 0.02 µM) it was 0.297. Besides, the relative viability in test [1] (first compound 0.06325 µM) came out at 0.313; in test [1] (first compound 0.2 µM), 0.332; in test [1] (first compound 0.6325 µM), 0.297; in test [1] (first compound 2 µM) it was 0.282; in test [2] (first compound 0.02 µM) it was 1.1; in test [2] (first compound 0.06325 µM) it was 1.18. Besides, the relative viability in test [2] (first compound 0.2 µM) was found to be 1.11; in test [2] (first compound 0.6325 µM), 1.12; in test [2] (first compound 2 µM), 1.08; in test [3] (first compound 0.02 µM), 0.463; in test [3] (first compound 0.06325 µM), 0.456; in test [3] (first compound 0.2 µM), 0.489. In addition, the figures for the relative viability in test [3] (first compound 0.6325 µM) and in test [3] (first compound 2 µM) were 0.478 and 0.483, respectively.

Turning to NCI-H2405, the relative viability with BGJ398 + Lapatinib (first compound 0.01 µM) amounted to 1.15; in the test with BGJ398 + Lapatinib (first compound 0.03162 µM), 1.32; in the test with BGJ398 + Lapatinib (first compound 0.1 µM), 1.05; with BGJ398 + Lapatinib (first compound 0.3162 µM), 1.07; with BGJ398 + Lapatinib (first compound 1 µM), 0.857; in test [1] (first compound 0.02 µM), 0.233. Besides, the relative viability was 0.161 in test [1] (first compound 0.06325 µM); 0.231 in test [1] (first compound 0.2 µM); 0.184 in test [1] (first compound 0.6325 µM); 0.155 in test [1] (first compound 2 µM); 0.96 in test [2] (first compound 0.02 µM); 1.08 in test [2] (first compound 0.06325 µM). The relative viability in test [2] (first compound 0.2 µM) is 1.03; in test [2] (first compound 0.6325 µM), 0.959; in test [2] (first compound 2 µM), 0.915; in test [3] (first compound 0.02 µM), 1.1; in test [3] (first compound 0.06325 µM), 1.28; in test [3] (first compound 0.2 µM), 1.22. Also, the relative viability came out at 1.05 in test [3] (first compound 0.6325 µM) and 0.859 in test [3] (first compound 2 µM).

Regarding NCI-H322M, the relative viability in the test with BGJ398 + Lapatinib (first compound 0.01 µM) turned out to be 0.675; with BGJ398 + Lapatinib (first compound 0.03162 µM) it was 0.561; in the test with BGJ398 + Lapatinib (first compound 0.1 µM) it was 0.551; with BGJ398 + Lapatinib (first compound 0.3162 µM), 0.581; in the test with BGJ398 + Lapatinib (first compound 1 µM), 0.58; in test [1] (first compound 0.02 µM), 0.274. In addition, the relative viability in test [1] (first compound 0.06325 µM) is 0.27; in test [1] (first compound 0.2 µM) it was 0.269; in test [1] (first compound 0.6325 µM), 0.239; in test [1] (first compound 2 µM), 0.238; in test [2] (first compound 0.02 µM), 1.06; in test [2] (first compound 0.06325 µM), 0.85. In addition, the relative viability in test [2] (first compound 0.2 µM) was found to be 0.982; in test [2] (first compound 0.6325 µM), 0.896; in test [2] (first compound 2 µM), 0.918; in test [3] (first compound 0.02 µM), 0.622; in test [3] (first compound 0.06325 µM), 0.631; in test [3] (first compound 0.2 µM), 0.646. Also, the relative viability in test [3] (first compound 0.6325 µM) was found to be 0.618; in test [3] (first compound 2 µM), 0.506.

Consider NCI-H1395, for which the relative viability in the test with BGJ398 + Lapatinib (first compound 0.01 µM) was determined as 1.1; with BGJ398 + Lapatinib (first compound 0.03162 µM), 1.75; in the test with BGJ398 + Lapatinib (first compound 0.1 µM) it was 0.823; in the test with BGJ398 + Lapatinib (first compound 0.3162 µM), 0.569; with BGJ398 + Lapatinib (first compound 1 µM) it was 0.476; in test [1] (first compound 0.02 µM) it was 0.44. Besides, the relative viability in test [1] (first compound 0.06325 µM) was found to be 0.386; in test [1] (first compound 0.2 µM), 0.417; in test [1] (first compound 0.6325 µM), 0.417; in test [1] (first compound 2 µM), 0.354; in test [2] (first compound 0.02 µM) it was 1.37; in test [2] (first compound 0.06325 µM), 1.28. For the same cell line, the relative viability in test [2] (first compound 0.2 µM) was found to be 1.25; in test [2] (first compound 0.6325 µM) it was 0.939; in test [2] (first compound 2 µM), 1.14; in test [3] (first compound 0.02 µM), 0.965; in test [3] (first compound 0.06325 µM), 0.779; in test [3] (first compound 0.2 µM), 0.975. The relative viability turned out to be 0.867 in test [3] (first compound 0.6325 µM) and 0.732 in test [3] (first compound 2 µM).

With NCI-H358, the relative viability with BGJ398 + Lapatinib (first compound 0.01 µM) is 0.452; in the test with BGJ398 + Lapatinib (first compound 0.03162 µM), 0.43; in the test with BGJ398 + Lapatinib (first compound 0.1 µM) it was 0.442; with BGJ398 + Lapatinib (first compound 0.3162 µM), 0.386; with BGJ398 + Lapatinib (first compound 1 µM) it was 0.519; in test [1] (first compound 0.02 µM) it was 0.151. Besides, the relative viability in test [1] (first compound 0.06325 µM) is 0.202; in test [1] (first compound 0.2 µM), 0.167; in test [1] (first compound 0.6325 µM), 0.14; in test [1] (first compound 2 µM), 0.105; in test [2] (first compound 0.02 µM) it was 0.776; in test [2] (first compound 0.06325 µM) it was 0.764. In addition, the relative viability was found to be 0.754 in test [2] (first compound 0.2 µM); 0.647 in test [2] (first compound 0.6325 µM); 0.74 in test [2] (first compound 2 µM); 0.166 in test [3] (first compound 0.02 µM); 0.18 in test [3] (first compound 0.06325 µM); 0.177 in test [3] (first compound 0.2 µM). Further, the relative viability in test [3] (first compound 0.6325 µM) came out at 0.186; in test [3] (first compound 2 µM), 0.181.

NCI-H838: the relative viability in the test with BGJ398 + Lapatinib (first compound 0.01 µM) was found to be 0.755; with BGJ398 + Lapatinib (first compound 0.03162 µM), 0.867; with BGJ398 + Lapatinib (first compound 0.1 µM) it was 0.914; in the test with BGJ398 + Lapatinib (first compound 0.3162 µM), 0.623; in the test with BGJ398 + Lapatinib (first compound 1 µM), 0.413; in test [1] (first compound 0.02 µM), 0.278. The relative viability came to 0.179 in test [1] (first compound 0.06325 µM); 0.311 in test [1] (first compound 0.2 µM); 0.257 in test [1] (first compound 0.6325 µM); 0.187 in test [1] (first compound 2 µM); 0.955 in test [2] (first compound 0.02 µM); 1.03 in test [2] (first compound 0.06325 µM). Also, the relative viability turned out to be 0.958 in test [2] (first compound 0.2 µM); 0.913 in test [2] (first compound 0.6325 µM); 1 in test [2] (first compound 2 µM); 0.247 in test [3] (first compound 0.02 µM); 0.272 in test [3] (first compound 0.06325 µM); 0.25 in test [3] (first compound 0.2 µM). For the same cell line, the relative viability in test [3] (first compound 0.6325 µM) was found to be 0.238; in test [3] (first compound 2 µM), 0.197.

On to CAL-12T, for which the relative viability in the test with BGJ398 + Lapatinib (first compound 0.01 µM) is 0.661; with BGJ398 + Lapatinib (first compound 0.03162 µM), 0.685; in the test with BGJ398 + Lapatinib (first compound 0.1 µM), 0.763; in the test with BGJ398 + Lapatinib (first compound 0.3162 µM), 0.726; with BGJ398 + Lapatinib (first compound 1 µM) it was 0.585; in test [1] (first compound 0.02 µM) it was 0.417. Besides, the relative viability in test [1] (first compound 0.06325 µM) came to 0.34; in test [1] (first compound 0.2 µM), 0.439; in test [1] (first compound 0.6325 µM), 0.304; in test [1] (first compound 2 µM) it was 0.139; in test [2] (first compound 0.02 µM) it was 0.679; in test [2] (first compound 0.06325 µM) it was 0.844. In addition, the relative viability was determined as 0.953 in test [2] (first compound 0.2 µM); 0.881 in test [2] (first compound 0.6325 µM); 0.839 in test [2] (first compound 2 µM); 1.03 in test [3] (first compound 0.02 µM); 1.31 in test [3] (first compound 0.06325 µM); 1.34 in test [3] (first compound 0.2 µM). The relative viability was found to be 1.09 in test [3] (first compound 0.6325 µM) and 1.28 in test [3] (first compound 2 µM).
